{"source": "patent US20260216220A1", "about": "“TREATMENT OF MYELOPEROXIDASE-POSITIVE ANCA-ASSOCIATED VASCULITIS WITH H2S RELEASING COMPOUNDS” (DEBRECENI EGYETEM, priority 2022, published 2026)", "key": {"[1]": {"tested_on": "mouse model of MPO-ANCA vasculitis", "experiment": "ANCA vasculitis mouse model (anti-MPO splenocyte transfer into Rag2−/− mice), kidney histology", "assay_type": "in vivo", "settings": "ATB 60 μmol/kg, administered orally (per os)", "method": "MPO knockout mice were immunized with mouse MPO based on the following protocol. On day 1 200 μl of 20 μg murine MPO (mMPO) or BSA in total with Complete Freud's Adjuvant were injected to MPO KO mice. 30-40 μl were injected to the backfoot footpads and 120-160 μl were injected subcutaneously in the abdominal region. On day 14 20 μg mMPO/BSA were injected IP with incomplete Freud's Adjuvant and on day 28 mice were boosted with 20 μg mMPO/BSA in DPBS buffer IP. 10 days after boost blood was drawn from eye corner under isoflurane anesthesia and antibody titers were checked by anti-MPO ELISA. If titer were low mice were boosted again with 20 μg mMPO or BSA and titer were checked again 7 days later. If titers were appropriate mice were terminated and splenocytes were isolated. […] The remaining red blood cells were lysed with Red Blood Cell Lysis Buffer according to manufacturer's instructions. […] Cells were counted using trypan blue solution, the total cell count varied between 3×10^7 and 6×10^7. Splenocytes derived from 1 mouse were injected into 2 Rag2−/− immunodeficient mice intravenously. […] After 4 weeks antibody titers were checked with anti-MPO ELISA. […]\nThe percentage of affected glomeruli in treated samples were calculated compared to their control pairs."}, "neutrophils [2]": {"tested_on": "neutrophils", "settings": "cited from earlier work"}, "neutrophils [3]": {"tested_on": "neutrophils", "experiment": "Neutrophil phagocytosis of fluorescent Escherichia coli K-12 BioParticles (Vybrant kit)", "assay_type": "cell-based, human", "settings": "GYY4137 10-100 μM, 2 hours", "method": "Phagocytosis experiments were carried out with the Vybrant™ Phagocytosis Assay Kit based on manufacturers instruction. Briefly, Fluorescent-labeled Escherichia coli K-12 BioParticles, and trypan blue stock solutions were prepared. […] 1 hour or 5 minutes prior to the addition of the fluorescent BioParticles suspension. After 2 hours the BioParticle solution was removed, 100 μl trypan blue solution was added immediately, and incubated for 1 minute at room temperature. Trypan blue was removed and 100 μl HBSS was added to each well. Fluorescence was measured at the excitation and emission wavelengths of 480 and 520 nm respectively. Samples for microscopy analysis were prepared similarly with the cell number of 2×10^5/well in EZ slide chamber slides."}, "neutrophils [4]": {"tested_on": "neutrophils", "settings": "cited from earlier work", "remark": "listed apart in the source"}, "[5]": {"tested_on": "PMA activated neutrophils"}, "[6]": {"tested_on": "PMA-activated neutrophils"}, "[7]": {"settings": "upon PMA and bacterial activation"}}, "note": "Like-named read-outs stand apart in the source and are kept apart here.", "data": [{"molecule": "COc1ccc2cc(C(C)C(=O)Oc3ccc(C(N)=S)cc3)ccc2c1", "note": "(stereo not drawn) [ATB346]", "values": [{"measurement": "efficacy on kidney damage in ANCA mouse model", "setting": "[1]", "value": "nor proved to be beneficial in reducing kidney damage"}, {"measurement": "efficacy on kidney damage in ANCA mouse model", "setting": "[1]; listed as ATB", "value": "proved to be inefficient"}]}, {"molecule": "N[C@@H](CS)C(=O)O", "note": "[cysteine]", "values": [{"measurement": "neutrophil apoptosis", "setting": "neutrophils [2]; [7]", "value": "inhibited neutrophil apoptosis"}, {"measurement": "oxidative burst", "setting": "neutrophils [2]; [7]", "value": "promoted oxidative burst"}]}, {"molecule": "C=C1[C@@H](C)[C@H]2[C@H](Cc3ccccc3)NC(=O)[C@]23[C@H](OC(C)=O)/C=C/[C@@](C)(O)C(=O)[C@@H](C)C/C=C/[C@H]3[C@@H]1O", "note": "[cytochalasin D]", "values": [{"measurement": "phagocytosis of E. coli Bioparticles (fluorescent microscopy)", "setting": "neutrophils [3]", "value": "inhibited"}]}, {"molecule": "C=CCSSCC=C", "note": "[diallyl-disulfide]", "values": [{"measurement": "neutrophil apoptosis", "setting": "neutrophils [2]; [7]", "value": "inhibited neutrophil apoptosis"}, {"measurement": "oxidative burst", "setting": "neutrophils [2]; [7]", "value": "promoted oxidative burst"}]}, {"molecule": "C=CCSSSCC=C", "note": "[diallyl-trisulfide]", "values": [{"measurement": "neutrophil apoptosis", "setting": "neutrophils [2]; [7]", "value": "inhibited neutrophil apoptosis"}, {"measurement": "oxidative burst", "setting": "neutrophils [2]; [7]", "value": "promoted oxidative burst"}]}, {"molecule": "sodium sulfide", "values": [{"measurement": "neutrophil apoptosis", "setting": "neutrophils [2]", "value": "inhibited neutrophil apoptosis"}, {"measurement": "oxidative burst", "setting": "neutrophils [2]", "value": "promoted oxidative burst"}, {"measurement": "killing of bacteria by neutrophils", "setting": "neutrophils [4]", "value": "more efficient in killing bacteria"}, {"measurement": "neutrophil apoptosis", "setting": "neutrophils [4]", "value": "diminished neutrophil apoptosis"}, {"measurement": "H2O2 production by PMA-activated neutrophils (FOX assay)", "setting": "[5]", "value": "not affected"}, {"measurement": "β-glucuronidase activity in supernatants (degranulation), PMA activation", "setting": "[6]", "value": "no effect on the enzymatic activity"}]}]}
